Consider `O=C1c2c(O)cccc2C(=CNc2ccc(Br)cc2)c2cccc(O)c21`, for which the logP stood at 5.19. As for `O=C1c2c(O)cccc2C(=CNCc2ccccc2)c2cccc(O)c21`, the figure is 4.23; as for `O=C1c2c(O)cccc2C(=CNc2ccc(Cl)cc2)c2cccc(O)c21`, 5.06. Consider `COc1ccc(NC=C2c3cccc(O)c3C(=O)c3c(O)cccc32)cc1`, for which the logP is 4.9. On to `O=C1c2c(O)cccc2C(=CNc2ccc(F)cc2)c2cccc(O)c21`, for which the lipophilicity (logP) is 4.64.

As for `CN(C=C1c2cccc(O)c2C(=O)c2c(O)cccc21)c1ccccc1`, the lipophilicity (logP) amounted to 5.07. Then `COc1ccc(NC=C2c3cccc(O)c3C(=O)c3c(O)cccc32)cc1OC`, with 4.37; and `O=C1c2c(O)cccc2C(=CNc2ccccc2)c2cccc(O)c21`, with 4.96.

Turning to `CNC=C1c2cccc(O)c2C(=O)c2c(O)cccc21`, the logP was found to be 3.55.

With `O=C1c2c(O)cccc2C(=CNc2ccc([N+](=O)[O-])cc2)c2cccc(O)c21`, the log partition coefficient (logP) amounted to 4.7. Then `O=C1c2c(O)cccc2C(=CNc2ccc3c(c2)OCO3)c2cccc(O)c21`, with 4.74; and `COc1ccccc1NC=C1c2cccc(O)c2C(=O)c2c(O)cccc21`, with 4.37; and `O=C1c2c(O)cccc2C(=CNc2ccc(O)cc2)c2cccc(O)c21`, with 4.01.

One may read the logP as the decadic logarithm of the partition coefficient of the neutral form, usually between octanol and water. High values mean higher lipophilicity, low ones lower lipophilicity.
